{"source": "patent US20110110985A1", "about": "“FUNCTIONALIZED NANOMATERIALS FOR CHELATION THERAPIES AND SORBENT DIALYSIS OF TOXINS” (priority 2009, published 2011)", "origin": "cited, not measured here", "key": {"[1]": {"conditions": "given in the first 24 hours"}, "[2]": {"conditions": "given orally to rats"}, "[3]": {"conditions": "day of chelation vs one and two days prior to treatment"}}}
{"smiles": "O=C(O)CN(CCN(CC(=O)O)CC(=O)O)CCN(CC(=O)O)CC(=O)O", "note": "[Ca-DTPA, diethylenetriaminepentaacetic acid]", "values": [{"measurement": "effectiveness relative to Zn-DTPA", "setting": "[1]", "value": 10, "unit": "fold"}]}
{"smiles": "O=C(O)[C@@H](S)[C@@H](S)C(=O)O", "note": "[DMSA, meso-2,3-dimercaptosuccinic acid]", "values": [{"measurement": "change of Ca and Zn in carcass, Fe and Cu in liver, kidney, or brain", "setting": "[2]", "value": "did not significantly change"}]}
{"smiles": "O=C(O)CN(CCN(CC(=O)O)CC(=O)O)CC(=O)O", "note": "[EDTA, ethylenediamine-tetraacetate]", "values": [{"measurement": "increase of urinary excretion of Ca", "setting": "[3]", "value": 2, "unit": "fold"}, {"measurement": "increase of urinary excretion of Zn", "setting": "[3]", "value": 18, "unit": "fold"}]}
